Laboratory results as given in ChEMBL document CHEMBL1124376, “Topically active carbonic anhydrase inhibitors. 2. Benzo[b]thiophenesulfonamide derivatives with ocular hypotensive activity” (J Med Chem, 1989).
Active and inactive are the calls of the source. The calls are words filed in the database; no cut-off is given here.

tested on: Oryctolagus cuniculus; assay: Reduction in maximum Intra ocular pressure in the rabbit model of ocular hypertension, when treated with a minimum effective topical dose of 0.10%; conditions: not given

SMILES | Activity [mmHg]
CC(=O)Oc1ccc2cc(S(N)(=O)=O)sc2c1 | -5.3

tested on: Oryctolagus cuniculus; assay: Reduction in maximum Intra ocular pressure in the rabbit model of ocular hypertension, when treated with a minimum effective topical dose of 10%; NE means No Effect; conditions: Eye

SMILES | Activity
CCOc1ccc2nc(S(N)(=O)=O)sc2c1 | inactive

tested on: Oryctolagus cuniculus; assay: Reduction in maximum Intra ocular pressure in the rabbit model of ocular hypertension, when treated with a minimum effective oral dose of 10 mg/Kg; NE is No Effect; assay type: functional, organism-based; conditions: Eye

SMILES | Activity
CC(=O)Nc1nnc(S(N)(=O)=O)s1 [ACETAZOLAMIDE] | inactive

molecular target: T1, Carbonic anhydrase 2 (Homo sapiens, UniProt P00918); assay: not given; conditions: not given

SMILES | IC50 [nM]
CN(C)CCSCc1ccc2sc(S(N)(=O)=O)cc2c1 | 15
COc1cccc2cc(S(N)(=O)=O)sc12 | 50
NS(=O)(=O)c1cc2cc(CN3CCOCC3)ccc2s1 | 15
COc1ccc2sc(S(N)(=O)=O)cc2c1 | 23
NS(=O)(=O)c1cc2ccc(OCC(=O)O)cc2s1 | 14
CC(=O)Nc1ccc2cc(S(N)(=O)=O)sc2c1 | 4.8
NS(=O)(=O)c1cc2ccc(OP(=O)(O)O)cc2s1 | 100
CC(=O)OCc1ccc2sc(S(N)(=O)=O)cc2c1 | 10
CC(C)COC(=O)Oc1ccc2cc(S(N)(=O)=O)sc2c1 | 5.6
CN(C)C(=O)Oc1ccc2sc(S(N)(=O)=O)cc2c1 | 5
CC(C)(C)NCC(O)COc1ccc2cc(S(N)(=O)=O)sc2c1 (configuration not stated) | 18
NS(=O)(=O)c1cc2cc(CO)ccc2s1 | 9
CC(C)(C)N1CC(COc2ccc3cc(S(N)(=O)=O)sc3c2)OC1=O (configuration not stated) | 8
NS(=O)(=O)c1cc2cccc(O)c2s1 | 11
COc1cccc2sc(S(N)(=O)=O)cc12 | 12
NS(=O)(=O)c1cc2ccccc2s1 | 5.2
NS(=O)(=O)c1cc2c(O)cccc2s1 | 12
CN(C)Cc1ccc2sc(S(N)(=O)=O)cc2c1 | 12
COCc1ccc2sc(S(N)(=O)=O)cc2c1 | 9
NS(=O)(=O)c1cc2ccc(OS(=O)(=O)O)cc2s1 | 6.8
Nc1ccc2cc(S(N)(=O)=O)sc2c1 | 10
COc1ccc2cc(S(N)(=O)=O)sc2c1 | 8.8
CC(=O)c1ccc2cc(S(N)(=O)=O)sc2c1 | 6
NS(=O)(=O)c1cc2cc(O)ccc2s1 | 6.2

tested on: Oryctolagus cuniculus; assay: Reduction in maximum Intra ocular pressure in the rabbit model of ocular hypertension, when treated with a minimum effective oral dose of 1.25 mg/kg; assay type: functional, Eye; conditions: not given

SMILES | Activity [mmHg]
CC(=O)Nc1nnc(S(N)(=O)=O)s1 [ACETAZOLAMIDE] | -6.3
NS(=O)(=O)c1cc2ccc(O)cc2s1 | -7.7

tested on: Oryctolagus cuniculus; assay: Reduction in maximum Intra ocular pressure in the rabbit model of ocular hypertension, when treated with a minimum effective topical dose of 0.10%; conditions: not given; remark: another data set of the same source

SMILES | Activity [mmHg]
NS(=O)(=O)c1cc2ccc(O)cc2s1 | -6.6

tested on: Oryctolagus cuniculus; assay: Reduction in maximum Intra ocular pressure in the rabbit model of ocular hypertension, when treated with a minimum effective topical dose of 0.25%; conditions: not given

SMILES | Activity [mmHg]
CC(C)(C)C(=O)Oc1ccc2nc(S(N)(=O)=O)sc2c1 | -7.8

molecular target: T1, Carbonic anhydrase 2; assay: Concentration of inhibitor required to reduce the rate of carbonic anhydrase II catalyzed CO2 hydration by 50%.; conditions: read-out: I50

SMILES | IC50 [nM]
CC(C)(C)C(=O)Oc1ccc2cc(S(N)(=O)=O)sc2c1 | 2.6
CC(=O)Oc1ccc2cc(S(N)(=O)=O)sc2c1 | 4

tested on: Oryctolagus cuniculus; assay: Reduction in maximum Intra ocular pressure in the rabbit model of ocular hypertension, when treated with a minimum effective topical dose of 10%; conditions: not given

SMILES | Activity [mmHg]
NS(=O)(=O)c1cc(Cl)c(Cl)c(S(N)(=O)=O)c1 [DICHLORPHENAMIDE] | -4.7

tested on: Oryctolagus cuniculus; assay: Reduction in maximum Intra ocular pressure in the rabbit model of ocular hypertension, when treated with a minimum effective topical dose of 0.05%; conditions: not given

SMILES | Activity [mmHg]
CC(C)(C)C(=O)Oc1ccc2cc(S(N)(=O)=O)sc2c1 | -4.7
NS(=O)(=O)c1cc2ccc(O)cc2s1 | -5.6

tested on: Oryctolagus cuniculus; assay: Reduction in maximum Intra ocular pressure in the rabbit model of ocular hypertension, when treated with a minimum effective topical dose of 5%; conditions: not given

SMILES | Activity [mmHg]
CC(=O)/N=c1/sc(S(N)(=O)=O)nn1C [METHAZOLAMIDE] | -5.1
